Read-outs that look alike come from different tables or passages of the source.
Columns and labels:
[1] = test system: Daudi cell line (AID positive); assay: Primary screening cell killing assay (Cell-Titer Glo, Day 7); type: cell-based; conditions: Homo sapiens
Description: (§1) Primary screening was a phenotypic screen that utilized the synthetic lethal interaction between AID and RAD51 to identify compounds that were both potent and on target. AID expressing cells are dependent upon RAD51 for survival; inhibiting RAD51 in AID positive cells results in a cytotoxic effect.
(§2) The first step was to set up a cell killing assay in the Daudi cell line (AID positive). A 96 well u-bottom plate was prepared by writing the experiment number, plate number, date and initials in the top right corner of the plate lid. With a sterile 300 ml reservoir, and 25 ml serological pipette, evaporation buffer media was pipetted into reservoir in 25 ml increments. Using the liquid handler, 150 ul of evaporation buffer media was pipetted from reservoir into rows A and H, and Columns 1 and 12 of the 96 well u-bottom plate. Cell cultures were counted to obtain the density of cells per ml, and the culture viability. The cell density information was used to obtain 1,000,000 cells from culture using a 5 mL serological pipette into an epi tube. The cell density information from the culture was used to calculate the number of cells and volume of media needed for the assay to seed 1250 cells in 130 ul of media per available culture well in the 96 well u-bottom plate. Rows B through F were used for cells (50 wells in total), with row G left for an empty media control. The calculation was overestimated by 10 mL to account for the dead volume in the 300 ml reservoir. Once the media volume was calculated, the appropriate volume of media was pipetted in 25 mL increments into the 250 mL bottle using a 25 mL serological pipette. The 250 ml bottle was capped tightly, and placed into a 37° C. water bath for 2 minutes. While the culture media was warming, 10 mL of fresh media was pipetted from the 500 mL culture media bottle into a sterile 25 mL reservoir. Using the Eppendorf multichannel pipette, 130 ul of media was piptted from the 25 mL reservoir into row G of the 96 well u-bottom plate. Once the 250 mL bottle of media was warmed, the volume of culture needed was pipetted into the bottle, and mixed gently with a 25 mL serological pipette as to not create bubbles, and then the contents of the bottle were pipetted into a new 300 mL reservoir. Using the liquid handler, 130 ul of culture was pipetted from the 300 mL reservoir into rows B through F of the 96 well u-bottom plate. Once the culture was added, the plate was placed into a 37° C. incubator until the compound master plate was prepared for use.
(§3) Two 96 well u-bottom plates were prepared by writing the master plate name in the upper right corner of the plate lid. Labeling one DMSO master and the other Media Master. The compounds of interest were obtained from the laboratory freezer, and placed into a 25 well storage box with a lid, and set the box aside. The compounds were vortexed after thawing but before use. Using an automatic multichannel pipette, 20 ul of 100% DMSO was pipetted into wells B3-B11 through G3-G11 of the DMSO master plate. For each compound on the master plate, 50 ul of the compound were pipetted in the appropriate well of row 2 (reference plate map to determine appropriate well). A serial dilution was prepared beginning by aspirating 20 ul from row 2 and mixing with row 3, repeating until row 11 was reached. Using the liquid handler, 194 ul of Daudi media was dispensed into wells B2-B11 through G2-G11 of the Media master plate. Using the liquid handler, 6 ul from the DMSO master plate was aspirated and dispensed into the media master plate, mixing 100 ul twice.
Compounds from master plate were then added to the culture plate. The culture plates were removed from the incubator, and set inside the biosafety cabinet. Using a liquid handler, 20 ul from wells B2 to B11 through G2 to G11 of master plate were aspirated, and dispensed into wells B2 to B11 through G2 to G11 of culture plate. This set was continued with each culture plate. […]

[2] = Pharmacokinetic (PK) study; type: in vivo, Rat; conditions: po @ 80 mg/kg (30% PEG400, 10% Vitamin E TPGS in water)
Description: PK studies in mice were used to determine the fate of the compounds in a whole organism. Rats were treated with the compounds either orally of via IV at the indicated doses and followed for up to 24 hours. Plasma samples were taken at different time points and analyzed by LC-MS.

[3] = Bi-directional Caco-2 permeability; type: in vitro ADME; conditions: human
Description: Bi-directional Caco-2 permeability was assayed. Caco-2 cells were seeded onto permeable polycarbonate supports and allowed to differentiate for about 3 weeks prior to being used in the assays. The cells were then exposed to the compounds from either the apical or basolateral sides and incubated at 37 C for up to 90 minutes under light agitation. Compound transport was then measured using LC/MS/MS analysis at 30, 60, and 90 minutes.

[4] = Human liver microsome stability; type: in vitro ADME; conditions: for Human Liver Microsome Stability Half Life: 37° C., 45 minutes incubation; for Human Liver Microsome Stability % QH: percentage of hepatic blood flow
Description: The stability of the claimed compounds was determined in the presences of human liver microsomes. The compounds were incubated with the microsomes at 37° C. for 45 minutes. Samples were analyzed using LC-MS/MS. Data analysis included half-life, clearance rate, and the percentage of hepatic blood flow (% QH) for each of the compounds in the different species.

WSU-FSCCL (Lymphoma) = assay: Cell line screen (potency assay); type: cell-based; conditions: AICDA expression Negative
Description: as §2, §3
(§4) Compounds from master plate were then added to the culture plate. The culture plates were removed from the incubator, and set inside the biosafety cabinet. Using a liquid handler, 20 ul from wells B2 to B11 through G2 to G11 of master plate were aspirated, and dispensed into wells B2 to B11 through G2 to G11 of culture plate. This set was continued with each culture plate. Once the culture plates acquired their 20 ul of compound dilutions, they were placed back into the incubator, until their reads on Day 7 of experiment. Cell death was measured on Day 7 of the experiment using Cell-Titer Glo and a Promega Plate reader. […]

KYSE-510 (Head and Neck) = assay: Cell line screen (potency assay); type: cell-based; conditions: Homo sapiens, AICDA expression Negative
Description: as §2, §3, §4

KG-1 (Leukemia) = assay: Cell line screen (potency assay); type: cell-based; conditions: AICDA expression Negative
Description: as §2, §3, §4

CCRF-SB (Leukemia) = assay: Cell line screen (potency assay); type: cell-based; conditions: Homo sapiens, AICDA expression High
Description: as §2, §3, §4

U-698-M (Lymphoma) = assay: Cell line screen (potency assay); type: cell-based; conditions: AICDA expression High
Description: as §2, §3, §4

[5] = test system: ARPE19/HPV16 (HPV Immortalized RPE); assay: Cell line screen (potency assay); type: cell-based; conditions: ARPE-19, AICDA expression Negative
Description: as §2, §3, §4

KYSE-70 (Head and Neck) = assay: Cell line screen (potency assay); type: cell-based; conditions: Homo sapiens, AICDA expression Low
Description: as §2, §3, §4

[6] = test system: WI-38 cells (AID negative); assay: Primary screening cell killing assay repeated in AID negative cells; type: cell-based, Human
Description: as §1
Percent cell death and EC50 values were calculated by comparing the cell viability of the compound treated wells to the non-treated wells. Normalized RLU values were obtained by subtracting the media well values from each of the wells in the same column, and then dividing that value by the DMSO treated cells values. The percent kill was then calculated by subtracting the normalized RLU value from 1 and multiplying by 100. The average normalized percent kill value and standard error of the mean was then calculated. The kill values were then inputted into Prism with the corresponding standard errors. In Prism a non-linear regression line was plotted with the data points using a semi-log scale, and the EC50 value was calculated.
The activity of the claimed compounds was measured in a variety of cell lines with different expression levels of activation induced cytidine deaminase (AICDA). The potency assay was repeated in all of the listed cell lines and the EC50 values recorded.

OV56 (Ovary) = assay: Cell line screen (potency assay); type: cell-based; conditions: AICDA expression Low
Description: as §2, §3, §4

TOV-1120D (Ovary) = assay: Cell line screen (potency assay); type: cell-based; conditions: AICDA expression Negative
Description: as §2, §3, §4

[7] = 168 h, Daudi cells (AID positive), cell death on Day 7, read-out: AID+ EC50
[8] = Daudi (Lymphoma), AICDA expression High, read-out: EC50
[9] = Caco-2, apical to basolateral, read-out: AB Recovery %
[10] = Caco-2, basolateral to apical, read-out: BA Recovery %
[11] = Homo sapiens, WI-38 cells (AID negative), read-out: AID− EC50
[12] = WI-38 (Normal Human Lung Fibroblast), AICDA expression Negative, read-out: EC50

Structure (SMILES): CC(C)OC(=O)N[C@H]1CC[C@H](c2ncc(-c3ccc(NC(=O)NCc4ncccc4F)cc3S(=O)(=O)NC(C)(C)C)s2)CC1 [Compound 31]
- EC50 [1, 7]: ≤ 100 nM
- EC50 [1, 8]: 20 nM
- F (%) @ 5 mg/kg ([2]; Rat Female): 2.77%
- T1/2 ([2]; Rat Female): 4.75 h
- F (%) @ 5 mg/kg ([2]; Rat Male): 1.49%
- T1/2 ([2]; Rat Male): 3.79 h
- recovery at 90 min [3, 9]: 70.5%
- recovery at 90 min [3, 10]: 92.3%
- Human Liver Microsome Stability Half Life [4]: 0.373 h
- Human Liver Microsome Stability % QH [4]: 77.3%
- EC50 (WSU-FSCCL (Lymphoma)): < 40 nM
- EC50 (KYSE-510 (Head and Neck)): > 10000 nM
- EC50 (KG-1 (Leukemia)): 8780 nM
- EC50 (CCRF-SB (Leukemia)): 2160 nM
- EC50 (U-698-M (Lymphoma)): 31 nM
- EC50 [5]: > 10000 nM
- EC50 (KYSE-70 (Head and Neck)): 4700 nM
- EC50 [6, 11]: > 1000 nM
- EC50 [6, 12]: > 10000 nM

Structure (SMILES): CC(C)OC(=O)NC1CCC(c2ncc(-c3ccc(NC(=O)N[C@H](C)c4ccccc4)cc3S(=O)(=O)NC(C)(C)C)s2)CC1 (stereo partly shown) [Compound 24]
- EC50 [1, 7]: ≤ 100 nM
- EC50 [6, 11]: > 1000 nM

Structure (SMILES): CC(C)OC(=O)NC1CCC(c2ncc(-c3ccc(NC(=O)N[C@@H](C)c4ccccc4)cc3S(=O)(=O)NC(C)(C)C)s2)CC1 (stereo partly shown) [Compound 26]
- EC50 [1, 7]: ≤ 100 nM
- EC50 [6, 11]: > 1000 nM

Structure (SMILES): CC(C)OC(=O)NC1CCC(c2ncc(-c3ccc(NC(=O)N[C@@H](C)c4ccccn4)cc3S(=O)(=O)NC(C)(C)C)s2)CC1 (stereo partly shown) [Compound 32]
- EC50 [1, 7]: ≤ 100 nM
- EC50 [6, 11]: > 1000 nM

Structure (SMILES): CC(C)OC(=O)NC1CCC(c2ncc(-c3ccc(NC(=O)NCc4ccccc4)cc3S(=O)(=O)NC(C)(C)CO)s2)CC1 (stereo not shown) [Compound 74]
- EC50 [1, 7]: ≤ 100 nM
- EC50 [6, 11]: > 1000 nM

Structure (SMILES): CC(C)OC(=O)N[C@H]1CC[C@H](c2ncc(-c3ccc(NC(=O)NCc4ccccn4)cc3S(=O)(=O)NC(C)(C)C)s2)CC1 [Compound 29]
- EC50 [1, 7]: ≤ 100 nM
- EC50 [1, 8]: 43 nM
- F (%) @ 5 mg/kg ([2]; Rat Female): 8.39%
- T1/2 ([2]; Rat Female): 4.66 h
- F (%) @ 5 mg/kg ([2]; Rat Male): 3.69%
- T1/2 ([2]; Rat Male): 3.97 h
- recovery at 90 min [3, 9]: 93.9%
- recovery at 90 min [3, 10]: 90.9%
- Human Liver Microsome Stability Half Life [4]: 0.342 h
- Human Liver Microsome Stability % QH [4]: 78.8%
- EC50 (WSU-FSCCL (Lymphoma)): 67 nM
- EC50 (KYSE-510 (Head and Neck)): > 10000 nM
- EC50 (KG-1 (Leukemia)): > 10000 nM
- EC50 (CCRF-SB (Leukemia)): 1280 nM
- EC50 (OV56 (Ovary)): 9090 nM
- EC50 (U-698-M (Lymphoma)): 113 nM
- EC50 [5]: > 10000 nM
- EC50 (KYSE-70 (Head and Neck)): 4660 nM
- EC50 (TOV-1120D (Ovary)): 9170 nM
- EC50 [6, 11]: > 1000 nM
- EC50 [6, 12]: > 10000 nM

Structure (SMILES): CC(C)OC(=O)N[C@@H]1CCC(c2ncc(-c3ccc(NC(=O)NCc4ccccc4)cc3S(=O)(=O)NC(C)(C)C)s2)NC1 (stereo partly shown) [Compound 64]
- EC50 [1, 7]: ≤ 100 nM
- recovery at 90 min [3, 9]: 79.7%
- recovery at 90 min [3, 10]: 95.9%
- EC50 [6, 11]: > 1000 nM

— patent US11607404B2, “Combinations of RAD51 and PARP inhibitors” (Cyteir Therapeutics, Inc., priority 2019, dated 2023)
